Measurements taken from patent publication US4668698A, “[(4-phenyl-1,3-dioxan-cis-5-yl)alkyl]phenylalkanoic acid derivatives” (Imperial Chemical Industries PLC, priority 1983, dated 1987).

Tests used:
[1] = tested on: rabbit aortal strip (TXA2 mimetic agent U46619 as agonist); assay: rabbit aortal strip model, antagonism of the TXA2 mimetic U46619 (test a); format: cell-based
Description: (a) The rabbit aortal strip model devised by Piper and Vane (Nature, 1969, 223, 29-35) using as agonist the TXA2 mimetic agent known as U46619 (R. L. Jones et alia in "Chemistry, Biochemistry and Pharmacological Activity of Prostanoids", eds. S. M. Roberts and F. Scheinmann, at p. 211; Pergamon Press, 1979);

[2] = tested on: blood pressure at the carotid artery; assay: hypertensive effect of U46619 in anaesthetised rats (test d); format: in vivo, rats (Alderley Park strain); settings: Rattus norvegicus, iv; intravenously via the jugular vein, anaesthetised male rats, n=3; read-out: ED50 (dose necessary to produce 50% of the maximum hypertensive effect)
Experimental: (d) Male rats (Alderley Park strain) are anaesthetised with sodium pentobarbital and blood pressure is monitored at the carotid artery. The TXA2 mimetic agent U46619 is administered intravenously via the jugular vein and an ED50 (dose necessary to produce 50% of the maximum hypertensive effect) is established (n=3). The ED50 for U46619 is approximately 5 μg/kg. A test compound is then administered either intravenously via the jugular vein or orally via a cannula directly into the stomach and the animal challenged with an ED50 dose of U46619, five minutes after dosing with test compound and then successively every ten minutes until the hypertensive effect of U46619 is no longer blocked.

`CC1(C)OC[C@H](Cc2ccccc2CCCC(=O)O)[C@H](c2ccccc2O)O1` (relative stereo) [Example 3, 4-(o-[2,2-dimethyl-4-o-hydroxyphenyl-1,3 dioxan cis-5-ylmethyl]phenyl)butanoic acid] was tested, and the pA2 [1] was 6.19.
`CCCCC[C@H](O)/C=C/[C@@H]1[C@@H](C/C=C\CCCC(=O)O)[C@H]2CO[C@@H]1C2` [Example U46619] was tested, and the ED50 [2] was roughly 5 µg/kg.
